This note sets out measurements from patent US6825170B2, “6-O-acyl ketolide antibacterials” (Ortho-McNeil Pharmaceutical, Inc., priority 2001, dated 2004).

Experiment in all cases: MIC, microdilution broth method (NCCLS)
What all share (type): cell-based
Conditions in all cases: 35° C., 16-20 hours
(In general: Dilution methods test growth across graded concentrations, often in twofold steps.)

In one assay the test system is E. faecalis ATCC29212. The protocol:
(§1) Minimal inhibitory concentration (MIC) has been an indicator of in vitro antibacterial activity widely used in the art. The in vitro antimicrobial activity of the compounds was determined by the microdilution broth method following the test method from the National Committee for Clinical Laboratory Standards (NCCLS). This method is described in the NCCLS Document M7-A4, Vol.17, No.2, “Methods for Dilution Antimicrobial Susceptibility Test for Bacteria that Grow Aerobically—Fourth Edition”, which is incorporated herein by reference.
(§2) In this method two-fold serial dilutions of drug in cation adjusted Mueller-Hinton broth are added to wells in microdilution trays. The test organisms are prepared by adjusting the turbidity of actively growing broth cultures so that the final concentration of test organism after it is added to the wells is approximately 5×10^4 CFU/well.
(§3) Following inoculation of the microdilution trays, the trays are incubated at 35° C. for 16-20 hours and then read. […] The amount of growth in the wells containing the test compound is compared with the amount of growth in the growth-control wells (no test compound) used in each tray. As set forth in Table 1, compounds of the present invention were tested against a variety of Gram positive and Gram negative pathogenic bacteria resulting in a range of activities depending on the organism tested.

Another assay has as its system H. influenzae ATCC49247. The protocol: as §1, §2, §3
The subject of another assay is S. aureus ATCC29213. The protocol: as §1, §2, §3
A further assay concerns S. pneumoniae ATCC49619. On the procedure:
as §1, §2, §3

Converted amounts (≈) assume the structure as drawn.

For `CCC1OC(=O)C(C)C(=O)C(C)C(OC2OC(C)CC(N(C)C)C2O)C(C)(OC(=O)OCC=Cc2cn(-c3ncccn3)cn2)CC(C)C(=O)C(C)C2NC(=O)OC12C` (centres unmarked) [Compound 34], in the assay on E. faecalis ATCC29212, the “MIC (C: E. faecalis ATCC29212)” value came to 0.12 µg/mL (≈ 0.145 µM). Moreover, the “MIC (E: H. influenzae ATCC49247)” value in the assay with H. influenzae ATCC49247 was 1 µg/mL (≈ 1.21 µM). For the same compound, the “MIC (B: S. aureus ATCC29213)” value against S. aureus ATCC29213 is 0.25 µg/mL (≈ 0.302 µM). Also, the “MIC (D: S. pneumoniae ATCC49619)” value against S. pneumoniae ATCC49619 is 0.03 µg/mL (≈ 0.0363 µM).
In the same order, the values of `CCC1OC(=O)C(C)C(=O)C(C)C(OC2OC(C)CC(N(C)C)C2O)C(C)(OC(=O)OCC=Cc2cn(-c3cnccn3)cn2)CC(C)C(=O)C(C)C2NC(=O)OC12C` (centres unmarked) [Compound 35] are 0.12 µg/mL (≈ 0.145 µM), 1 µg/mL (≈ 1.21 µM), 0.25 µg/mL (≈ 0.302 µM) and 0.03 µg/mL (≈ 0.0363 µM).
In the same order, the values of `CCC1OC(=O)C(C)C(=O)C(C)C(OC2OC(C)CC(N(C)C)C2O)C(C)(OC(=O)OCC=Cc2cnc3ccccc3c2)CC(C)C(=O)C(C)C2NC(=O)OC12C` (centres unmarked) [Compound 37] are 0.06 µg/mL (≈ 0.0741 µM), 0.5 µg/mL (≈ 0.617 µM), 0.12 µg/mL (≈ 0.148 µM) and “≦0.015 μg/mL”.
In the same order, the values of `CCC1OC(=O)C(C)C(=O)C(C)C(OC2OC(C)CC(N(C)C)C2O)C(C)(OC(=O)OCC=Cc2ccc(-c3ncco3)cc2)CC(C)C(=O)C(C)C2NC(=O)OC12C` (centres unmarked) [Compound 47] are 0.06 µg/mL (≈ 0.0726 µM), 0.5 µg/mL (≈ 0.605 µM), 0.12 µg/mL (≈ 0.145 µM) and “≦0.015 μg/mL”.
With `CCC1OC(=O)C(C)C(=O)C(C)C(OC2OC(C)CC(N(C)C)C2O)C(C)(OC(=O)OCC=Cc2ccc(-c3cnco3)cc2)CC(C)C(=O)C(C)C2NC(=O)OC12C` (centres unmarked) [Compound 48], the “MIC (C: E. faecalis ATCC29212)” value in the assay on E. faecalis ATCC29212 came to 0.12 µg/mL (≈ 0.145 µM). Further, the “MIC (E: H. influenzae ATCC49247)” value against H. influenzae ATCC49247 was 1 µg/mL (≈ 1.21 µM). For the same compound, the “MIC (B: S. aureus ATCC29213)” value against S. aureus ATCC29213 was 0.12 µg/mL (≈ 0.145 µM). The “MIC (D: S. pneumoniae ATCC49619)” value with S. pneumoniae ATCC49619 came out at 0.03 µg/mL (≈ 0.0363 µM).
For `CCC1OC(=O)C(C)C(=O)C(C)C(OC2OC(C)CC(N(C)C)C2O)C(C)(OC(=O)OCC=Cc2ccc(-c3nccs3)cc2)CC(C)C(=O)C(C)C2NC(=O)OC12C` (centres unmarked) [Compound 49], the “MIC (C: E. faecalis ATCC29212)” value with E. faecalis ATCC29212 turned out to be 0.12 µg/mL (≈ 0.143 µM). The “MIC (E: H. influenzae ATCC49247)” value against H. influenzae ATCC49247 amounted to 1 µg/mL (≈ 1.19 µM). For the same compound, the “MIC (B: S. aureus ATCC29213)” value against S. aureus ATCC29213 was 0.12 µg/mL (≈ 0.143 µM). Besides, the “MIC (D: S. pneumoniae ATCC49619)” value in the assay with S. pneumoniae ATCC49619 stood at 0.03 µg/mL (≈ 0.0356 µM).
Consider `CCC1OC(=O)C(C)C(=O)C(C)C(OC2OC(C)CC(N(C)C)C2O)C(C)(OC(=O)OCC=Cc2ccc(-c3cccs3)cc2)CC(C)C(=O)C(C)C2NC(=O)OC12C` (centres unmarked) [Compound 50], for which the “MIC (C: E. faecalis ATCC29212)” value with E. faecalis ATCC29212 came to 0.5 µg/mL (≈ 0.595 µM). The “MIC (E: H. influenzae ATCC49247)” value with H. influenzae ATCC49247 was 2 µg/mL (≈ 2.38 µM). Besides, the “MIC (B: S. aureus ATCC29213)” value with S. aureus ATCC29213 was 1 µg/mL (≈ 1.19 µM). In addition, the “MIC (D: S. pneumoniae ATCC49619)” value with S. pneumoniae ATCC49619 stood at 0.06 µg/mL (≈ 0.0713 µM).
In the same order, the values of `CCC1OC(=O)C(C)C(=O)C(C)C(OC2OC(C)CC(N(C)C)C2O)C(C)(OC(=O)OCC=Cc2ccc(-c3nnco3)cc2)CC(C)C(=O)C(C)C2NC(=O)OC12C` (centres unmarked) [Compound 52] are 0.06 µg/mL (≈ 0.0726 µM), 1 µg/mL (≈ 1.21 µM), 0.12 µg/mL (≈ 0.145 µM) and “≦0.015 μg/mL”.
As for `CCC1OC(=O)C(C)C(=O)C(C)C(OC2OC(C)CC(N(C)C)C2O)C(C)(OC(=O)OCC=Cc2nc3ccccc3n2C)CC(C)C(=O)C(C)C2NC(=O)OC12C` (centres unmarked) [Compound 55], the “MIC (C: E. faecalis ATCC29212)” value against E. faecalis ATCC29212 was 0.12 µg/mL (≈ 0.148 µM). Besides, the “MIC (E: H. influenzae ATCC49247)” value against H. influenzae ATCC49247 was 1 µg/mL (≈ 1.23 µM). Besides, the “MIC (B: S. aureus ATCC29213)” value against S. aureus ATCC29213 was determined as 0.25 µg/mL (≈ 0.308 µM). Further, the “MIC (D: S. pneumoniae ATCC49619)” value with S. pneumoniae ATCC49619 was 0.03 µg/mL (≈ 0.0369 µM).
As to `CCC1OC(=O)C(C)C(=O)C(C)C(OC2OC(C)CC(N(C)C)C2O)C(C)(OC(=O)OCC=Cc2ccc(-c3ncc(Br)cn3)cc2)CC(C)C(=O)C(C)C2NC(=O)OC12C` (centres unmarked) [Compound 56], the “MIC (C: E. faecalis ATCC29212)” value in the assay with E. faecalis ATCC29212 was determined as 0.25 µg/mL (≈ 0.273 µM). Moreover, the “MIC (E: H. influenzae ATCC49247)” value with H. influenzae ATCC49247 is 2 µg/mL (≈ 2.18 µM). Further, in the assay on S. aureus ATCC29213, the “MIC (B: S. aureus ATCC29213)” value turned out to be 0.5 µg/mL (≈ 0.546 µM). For the same compound, the “MIC (D: S. pneumoniae ATCC49619)” value in the assay on S. pneumoniae ATCC49619 came out at 0.06 µg/mL (≈ 0.0655 µM).
Consider `CCc1cnc(-c2ccc(C=CCOC(=O)OC3(C)CC(C)C(=O)C(C)C4NC(=O)OC4(C)C(CC)OC(=O)C(C)C(=O)C(C)C3OC3OC(C)CC(N(C)C)C3O)cc2)nc1` (centres unmarked) [Compound 58], for which, in the assay on E. faecalis ATCC29212, the “MIC (C: E. faecalis ATCC29212)” value stood at 0.5 µg/mL (≈ 0.578 µM). Further, the “MIC (E: H. influenzae ATCC49247)” value against H. influenzae ATCC49247 worked out at 4 µg/mL (≈ 4.62 µM). In addition, the “MIC (B: S. aureus ATCC29213)” value in the assay with S. aureus ATCC29213 is 0.5 µg/mL (≈ 0.578 µM). In addition, in the assay on S. pneumoniae ATCC49619, the “MIC (D: S. pneumoniae ATCC49619)” value stood at 0.06 µg/mL (≈ 0.0694 µM).
